This is an account of results in article PMC9721373 (Antiviral Research, 2022).

Counter-ions that a name gives are not always drawn. Like-named read-outs stand apart in the source and are kept apart here.

The Kd is the constant that tells how readily two partners part at equilibrium. The EC50 is the concentration at which the effect is half-maximal.

Data set [1] deals with rVSVΔG-GFP/SARS2-S. Put plainly: microbe, parasite or virus in culture. The settings on record: for activity at 10 µM: Severe acute respiratory syndrome coronavirus 2, HEK-293T, 16 h, read-out: rVSVΔG-GFP/SARS2-S GFP (%); for rVSVΔG-GFP/SARS2-S GFP (%): 10 μM, HEK293T/ACE2, 16 hpi, GFP-positive cells, vehicle-treated = 100%. It is filed as cell-based.
The next data set relates to rVSVΔG-GFP/VSVG. Put plainly: microbe, parasite or virus in culture. It is filed as cell-based. The settings on record: for activity at 10 µM: Vesicular stomatitis virus, HEK-293T, 16 h, read-out: rVSVΔG-GFP/VSVG GFP (%).
The target of the next data set is purified ACE2. The settings on record: read-out: dissociation constant (KD), ref Lu et al., 2021; cited from earlier work.
The target of data set [2] is SARS2-S–NRP-1 binding (rS1 / rNRP-1) (Homo sapiens, UniProt O14786).
Chain of SARS2-S–NRP-1 binding (rS1 / rNRP-1) (O14786 22-856): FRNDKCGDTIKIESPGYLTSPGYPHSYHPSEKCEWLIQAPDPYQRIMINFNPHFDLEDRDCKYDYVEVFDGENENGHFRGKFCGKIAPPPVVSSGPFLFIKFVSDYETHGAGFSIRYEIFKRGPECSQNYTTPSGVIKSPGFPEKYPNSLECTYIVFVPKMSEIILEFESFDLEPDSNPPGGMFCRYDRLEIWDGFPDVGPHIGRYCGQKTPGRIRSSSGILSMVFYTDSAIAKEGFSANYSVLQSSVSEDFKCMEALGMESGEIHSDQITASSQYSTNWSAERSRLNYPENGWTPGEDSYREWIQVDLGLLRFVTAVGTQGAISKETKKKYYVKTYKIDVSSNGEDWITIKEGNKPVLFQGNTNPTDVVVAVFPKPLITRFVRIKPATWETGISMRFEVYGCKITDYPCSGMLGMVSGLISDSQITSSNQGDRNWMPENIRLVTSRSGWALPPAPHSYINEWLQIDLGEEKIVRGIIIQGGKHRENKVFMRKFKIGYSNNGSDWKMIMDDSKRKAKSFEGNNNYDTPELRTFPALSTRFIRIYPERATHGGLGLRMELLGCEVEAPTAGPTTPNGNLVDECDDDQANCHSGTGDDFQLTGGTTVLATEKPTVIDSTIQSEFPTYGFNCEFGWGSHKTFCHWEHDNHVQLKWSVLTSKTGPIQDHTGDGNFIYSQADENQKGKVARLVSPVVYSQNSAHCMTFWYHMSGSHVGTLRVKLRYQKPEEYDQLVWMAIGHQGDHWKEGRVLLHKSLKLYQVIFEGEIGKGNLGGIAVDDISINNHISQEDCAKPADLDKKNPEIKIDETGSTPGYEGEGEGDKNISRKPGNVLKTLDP
Data set [3] concerns rVSVΔG-GFP/SARS2-S.
Another data set has as its system VeroE6/TMPRSS2 cells. The settings on record: 10 μM, 17.5 h.
For data set [4], the system named is rVSVΔG-GFP/SARS2-S. As to the kind of experiment: microbe, parasite or virus in culture. The settings on record: Severe acute respiratory syndrome coronavirus 2, HEK-293T.
[5] abbreviates: 10 μM, HEK293T/ACE2, 16 hpi, GFP-positive cells, vehicle-treated = 100%.

Consider `CNCCC=C1c2ccccc2CCc2ccccc21` [Nortriptyline hydrochloride], for which the activity at 10 µM in the data set on rVSVΔG-GFP/SARS2-S [1] came out at 17.4%. In addition, the activity at 10 µM with rVSVΔG-GFP/VSVG came out at 91.7%. In the data set with HEK293T/ACE2 cells (human), the “rVSVΔG-GFP/SARS2-S Hoechst (%)” value is listed as 81.23% and the “rVSVΔG-GFP/VSVG Hoechst (%)” value is 76.77%.

As for `Clc1ccc2c(c1)C(N1CCNCC1)=Nc1ccccc1O2` [Amoxapine], the figures for the activity at 10 µM in the data set on rVSVΔG-GFP/SARS2-S [1] and in the data set on rVSVΔG-GFP/VSVG were 23.7% and 116%, respectively. Moreover, the “rVSVΔG-GFP/SARS2-S Hoechst (%)” value in the data set with HEK293T/ACE2 cells (human) was 102.06%. In addition, the “rVSVΔG-GFP/VSVG Hoechst (%)” value in the data set with HEK293T/ACE2 cells (human) came to 99.31%.

Take `CN1CC2c3ccccc3Oc3ccc(Cl)cc3C2C1` (stereo not shown) [Asenapine Maleate, Asenapine maleate]: in the data set on HEK293T/ACE2 cells (human), the “rVSVΔG-GFP/SARS2-S Hoechst (%)” value was found to be 98.20% and the “rVSVΔG-GFP/VSVG Hoechst (%)” value stood at 95.98%.

With `CN1CCN(CCCN2c3ccccc3Sc3ccc(C(F)(F)F)cc32)CC1` [Trifluoperazine dihydrochloride], in the data set with HEK293T/ACE2 cells (human), the “rVSVΔG-GFP/SARS2-S Hoechst (%)” value was determined as 107.56% and the “rVSVΔG-GFP/VSVG Hoechst (%)” value is given as 97.29%. On purified ACE2, the Kd was 33.3 µM.

As for `Cc1ccc(NC(=O)c2ccc(CN3CCN(C)CC3)cc2)cc1Nc1nccc(-c2cccnc2)n1` [Imatinib Mesylate (STI571), Imatinib Mesylate], the activity at 10 µM in the data set with rVSVΔG-GFP/SARS2-S [1] worked out at 20.8%. In addition, the “rVSVΔG-GFP/VSVG GFP (%)” value in the data set on rVSVΔG-GFP/VSVG turned out to be 103.15%. Also, in the data set on HEK293T/ACE2 cells (human), the “rVSVΔG-GFP/SARS2-S Hoechst (%)” value came out at 96.53% and the “rVSVΔG-GFP/VSVG Hoechst (%)” value was 94.49%.

Consider `CN[C@H]1CC[C@@H](c2ccc(Cl)c(Cl)c2)c2ccccc21` [Sertraline hydrochloride], for which the figures for the activity at 10 µM with rVSVΔG-GFP/SARS2-S [1] and with rVSVΔG-GFP/VSVG were 15.8% and 105%, respectively. Moreover, the “rVSVΔG-GFP/SARS2-S Hoechst (%)” value with HEK293T/ACE2 cells (human) is recorded as 101.27%. For the same compound, the “rVSVΔG-GFP/VSVG Hoechst (%)” value with HEK293T/ACE2 cells (human) is 97.33%.

On to `C=CC(=O)Nc1cc(Nc2nccc(-c3cn(C)c4ccccc34)n2)c(OC)cc1N(C)CCN(C)C.CS(=O)(=O)O` [AZD-9291 mesylate], for which the “rVSVΔG-GFP/SARS2-S GFP (%)” value in the data set on rVSVΔG-GFP/SARS2-S [1] is given as 5.36%. Also, the “rVSVΔG-GFP/VSVG GFP (%)” value in the data set with rVSVΔG-GFP/VSVG (setting [5]) is given as 112.06%. For the same compound, in the data set with HEK293T/ACE2 cells, the “rVSVΔG-GFP/SARS2-S Hoechst (%)” value is on record as 98.67% and the “rVSVΔG-GFP/VSVG Hoechst (%)” value was 98.67%.

Regarding `Cc1c(-c2ccc(O)cc2)n(Cc2ccc(OCCN3CCCCCC3)cc2)c2ccc(O)cc12` [Bazedoxifene acetate], in the data set on HEK293T/ACE2 cells (human), the “rVSVΔG-GFP/SARS2-S Hoechst (%)” value amounted to 88.96% and the “rVSVΔG-GFP/VSVG Hoechst (%)” value worked out at 102.51%.

As for `Fc1ccc([C@@H]2CCNC[C@H]2COc2ccc3c(c2)OCO3)cc1` [Paroxetine hydrochloride], in the data set on HEK293T/ACE2 cells (human), the “rVSVΔG-GFP/SARS2-S Hoechst (%)” value came to 102.73% and the “rVSVΔG-GFP/VSVG Hoechst (%)” value is given as 98.03%.

For `CCCCc1oc2ccc(NS(C)(=O)=O)cc2c1C(=O)c1ccc(OCCCN(CCCC)CCCC)cc1` [Dronedarone hydrochloride], in the data set with HEK293T/ACE2 cells (human), the “rVSVΔG-GFP/SARS2-S Hoechst (%)” value was found to be 99.72% and the “rVSVΔG-GFP/VSVG Hoechst (%)” value was determined as 101.34%.

Take `OCCN1CCN(CCCN2c3ccccc3Sc3ccc(Cl)cc32)CC1` [Perphenazine]: the “rVSVΔG-GFP/VSVG Hoechst (%)” value in the data set on HEK293T/ACE2 cells (human) amounted to 86.64%.

Turning to `O=C(c1ccc(OCCN2CCCCC2)cc1)c1c(-c2ccc(O)cc2)sc2cc(O)ccc12` [Raloxifene hydrochloride], in the data set on HEK293T/ACE2 cells (human), the “rVSVΔG-GFP/SARS2-S Hoechst (%)” value came out at 101.70% and the “rVSVΔG-GFP/VSVG Hoechst (%)” value is 103.53%.

In the case of `CSc1ccc2c(c1)N(CCC1CCCCN1C)c1ccccc1S2` (stereo not shown) [Thioridazine hydrochloride], in the data set on rVSVΔG-GFP/SARS2-S [1], the activity at 10 µM was 15.8%. In addition, in the data set on rVSVΔG-GFP/VSVG, the activity at 10 µM came to 119%. In the data set on HEK293T/ACE2 cells (human), the “rVSVΔG-GFP/SARS2-S Hoechst (%)” value is recorded as 98.59% and the “rVSVΔG-GFP/VSVG Hoechst (%)” value is given as 95.38%.

Turning to `C[C@@H](NCCCc1cccc(C(F)(F)F)c1)c1cccc2ccccc12` [Cinacalcet hydrochloride], in the data set on HEK293T/ACE2 cells (human), the “rVSVΔG-GFP/SARS2-S Hoechst (%)” value came to 97.33% and the “rVSVΔG-GFP/VSVG Hoechst (%)” value is recorded as 95.94%.

As for `CN1CCC[C@@H]1CCO[C@](C)(c1ccccc1)c1ccc(Cl)cc1` [Clemastine fumarate], the activity at 10 µM in the data set with rVSVΔG-GFP/SARS2-S [1] is 12.5%. In the data set on rVSVΔG-GFP/VSVG, the activity at 10 µM was 105%. Also, in the data set on HEK293T/ACE2 cells (human), the “rVSVΔG-GFP/SARS2-S Hoechst (%)” value is 106.94% and the “rVSVΔG-GFP/VSVG Hoechst (%)” value is given as 101.47%.

For `CC(CN(C)C)CN1c2ccccc2CCc2ccccc21` (stereo not shown) [Trimipramine maleate], the “rVSVΔG-GFP/VSVG Hoechst (%)” value in the data set on HEK293T/ACE2 cells (human) is on record as 99.90%.

`CC[C@H]1OC(=O)[C@H](C)[C@@H](O[C@H]2C[C@@](C)(OC)[C@@H](O)[C@H](C)O2)[C@H](C)[C@@H](O[C@@H]2O[C@H](C)C[C@H](N(C)C)[C@H]2O)[C@](C)(O)C[C@@H](C)CN(C)[C@H](C)[C@@H](O)[C@]1(C)O` [Azithromycin dihydrate]: in the data set with HEK293T/ACE2 cells (human), the “rVSVΔG-GFP/SARS2-S Hoechst (%)” value is recorded as 100.22% and the “rVSVΔG-GFP/VSVG Hoechst (%)” value was found to be 101.30%.

Turning to `CN1CCN(CCCN2c3ccccc3Sc3ccc(Cl)cc32)CC1` [Prochlorperazine Maleate, Prochlorperazine dimaleate], the activity at 10 µM in the data set with rVSVΔG-GFP/SARS2-S [1] was 16.6%. Also, the activity at 10 µM with rVSVΔG-GFP/VSVG worked out at 131%. Further, in the data set on HEK293T/ACE2 cells (human), the “rVSVΔG-GFP/SARS2-S Hoechst (%)” value is reported as 97.05% and the “rVSVΔG-GFP/VSVG Hoechst (%)” value was determined as 93.26%.

For `CC/C(=C(\c1ccccc1)c1ccc(OCCN(C)C)cc1)c1ccccc1` [Tamoxifen citrate], in the data set on rVSVΔG-GFP/SARS2-S [1], the activity at 10 µM turned out to be 16.3%. Moreover, in the data set with rVSVΔG-GFP/VSVG, the activity at 10 µM worked out at 106%. For the same compound, in the data set on HEK293T/ACE2 cells (human), the “rVSVΔG-GFP/SARS2-S Hoechst (%)” value came out at 99.67% and the “rVSVΔG-GFP/VSVG Hoechst (%)” value came out at 97.14%.

Take `CN(C)CCOc1ccc(/C(=C(/CCCl)c2ccccc2)c2ccccc2)cc1` [Toremifene]: the “rVSVΔG-GFP/SARS2-S GFP (%)” value with rVSVΔG-GFP/SARS2-S [1] is 21.77%. Besides, the “rVSVΔG-GFP/VSVG GFP (%)” value with rVSVΔG-GFP/VSVG (setting [5]) amounted to 142.24%. Besides, in the data set with HEK293T/ACE2 cells (human), the “rVSVΔG-GFP/SARS2-S Hoechst (%)” value is given as 101.27% and the “rVSVΔG-GFP/VSVG Hoechst (%)” value is listed as 90.44%.

Regarding `CC(CN(C)C)CN1c2ccccc2Sc2ccccc21` (stereo not shown) [Alimemazine tartrate], the “NRP1–S1 Binding (Normalized signal intensity)” value in data set [2] is on record as “inhibited”. The “SI (CC50/EC50)” value in the data set with rVSVΔG-GFP/SARS2-S [3] was found to be 12.2. Further, the VeroE6/TMPRSS2 cell viability result in the data set with VeroE6/TMPRSS2 cells is “did not affect”. For the same compound, in the data set with rVSVΔG-GFP/SARS2-S [4], a half-maximal effect (EC50) was put at 2.42 µM.

Turning to `OCCN1CCN(CCCN2c3ccccc3Sc3ccc(C(F)(F)F)cc32)CC1` [Fluphenazine hydrochloride, Fluphenazine dihydrochloride], the activity at 10 µM in the data set with rVSVΔG-GFP/SARS2-S [1] worked out at 19.3%. For the same compound, in the data set with rVSVΔG-GFP/VSVG, the activity at 10 µM turned out to be 106%. Moreover, in the data set on HEK293T/ACE2 cells (human), the “rVSVΔG-GFP/SARS2-S Hoechst (%)” value turned out to be 103.35% and the “rVSVΔG-GFP/VSVG Hoechst (%)” value is listed as 100.59%.

`CN(C)CCOc1ccc(/C(=C(/CCCl)c2ccccc2)c2ccccc2)cc1` [Toremifene citrate]: in the data set on rVSVΔG-GFP/SARS2-S [1], the “rVSVΔG-GFP/SARS2-S GFP (%)” value came out at 8.32%. For the same compound, the “rVSVΔG-GFP/VSVG GFP (%)” value in the data set on rVSVΔG-GFP/VSVG (setting [5]) is on record as 109.35%. In the data set on HEK293T/ACE2 cells (human), the “rVSVΔG-GFP/SARS2-S Hoechst (%)” value was 99.98% and the “rVSVΔG-GFP/VSVG Hoechst (%)” value is 98.74%.

`CN(C)CCCN1c2ccccc2Sc2ccc(Cl)cc21` [Chlorpromazine hydrochloride]: the “rVSVΔG-GFP/VSVG Hoechst (%)” value in the data set on HEK293T/ACE2 cells (human) is 97.98%. The Kd on purified ACE2 is 13.8 µM.

Turning to `NC(N)=NCCC[C@H](NC(=O)c1sccc1NS(=O)(=O)c1cccc2nsnc12)C(=O)O` [EG00229], the “concentration required to inhibit SARS2-S–NRP-1 binding” value in data set [2] came out at 1 mM.

Take `COc1cc2c(Nc3ccc(Br)cc3F)ncnc2cc1OCC1CCN(C)CC1` [Vandetanib (ZD6474), Vandetanib]: in the data set on HEK293T/ACE2 cells (human), the “rVSVΔG-GFP/SARS2-S Hoechst (%)” value is recorded as 104.11% and the “rVSVΔG-GFP/VSVG Hoechst (%)” value worked out at 99.04%.
